Here are results for 18 compounds from patent US11286247B2, “Acryloyl-containing nuclear transport regulators and uses thereof” (WIGEN BIOMEDICINE TECHNOLOGY (SHANGHAI) CO., LTD., priority 2019, dated 2022).

The target of one data set is T1, CRM1 (Homo sapiens, UniProt O14980).
T1 construct: The nuclear localization of Rev protein depends on CRM1; endogenous in cells; host or cells: U2OS cells stably or transiently expressing Rev-GFP (reporter cargo)
Put plainly: Rev-GFP nuclear export assay. The class given is cell-based. The conditions noted are these: U2OS cells expressing Rev-GFP, 1 hour incubation, nuclear retention of Rev-GFP. The procedure:
The Rev protein from HIV contains nuclear export sequence (NES) at its C terminus and nuclear localization sequence (NLS) at its N-terminus. The nuclear localization of Rev protein depends on CRM1. U2OS cells expressing Rev protein fused with GFP (Rev-GFP) were plated in black 384 plates with clear bottom one day prior to treatment. Compounds were serially diluted 2-fold from 40 μM with DMEM in 384 plates, and then incubated with U2OS cells for an hour. Cells were fixed with 3.7% formaldehyde afterwards and nuclei were stained with Hoechst33258. The nuclear retention of Rev-GFP was examined, and IC50 was calculated.

Data set [1] relates to BxPC-3 cells (pancreatic cancer). Put plainly: Cancer cell proliferation assay, BxPC-3. The conditions noted are these: Homo sapiens, BXPC-3, 72 h; three days incubation, absorbance 570 nm; read-out: IC50 (μM) BxPC-3. The data set is classed as cell-based. The procedure:
(§1) BxPC-3 cells (pancreatic cancer) and MDA-MB-231 cells (breast cancer cells) were harvested from exponential phase cultures and seeded in 96-well plates at a cell density of 2×10^4 per well. After overnight attachment, compounds including positive controls were applied to cells at five concentrations and incubated for three days. During the last four hours of incubation, 20 μL of 5 mg/mL […] was added followed by the further addition of 100 μL DMSO. The plates were subsequently shook for 10 minutes to dissolve insoluble purple formazan. Absorbance (A) at a wavelength of 570 nm was quantified. Percentage of inhibition was used for the calculation of IC50 based on the bliss method.

For data set [2], the system named is MDA-MB-231 cells (breast cancer cells). In words: Cancer cell proliferation assay, MDA-MB-231. The data set is classed as cell-based. As to conditions: Homo sapiens, MDA-MB-231, 72 h; three days incubation, absorbance 570 nm; read-out: IC50 (μM) MDA-MB-231. How it is done:
as §1

The nature of data set [3]: In vivo pharmacokinetic analysis. The conditions noted are these: ICR, mouse; mice, 5 mg/kg, oral gavage in 0.5% CMC, plasma. How it is done:
A group of 9 ICR mice received 5 mg/kg of compound in 0.5% CMC by oral gavage. Blood was taken before treatment and at 5 min, 30 min, 1, 2, 4, 8, 12 and 24 h after treatment. 80 μL of whole blood was sampled (n=3 at each time point) via retro-orbital bleeds or cardiac puncture. The blood sample was collected into EDTA tubes and plasma were obtained by centrifugation at 1500-1600 rpm for 10 min at 4° C. After centrifugation, plasma sample was transferred to a new tube and stored at −60 to −90° C. for future analysis. Plasma concentration of (compounds was quantified by a method based on liquid chromatography coupled to tandem mass-spectrometric detections (LC/MS/MS). Noncompartmental pharmacokinetics parameters were calculated.

Each structure is given as a SMILES string.

T1 sequence (O14980 whole entry): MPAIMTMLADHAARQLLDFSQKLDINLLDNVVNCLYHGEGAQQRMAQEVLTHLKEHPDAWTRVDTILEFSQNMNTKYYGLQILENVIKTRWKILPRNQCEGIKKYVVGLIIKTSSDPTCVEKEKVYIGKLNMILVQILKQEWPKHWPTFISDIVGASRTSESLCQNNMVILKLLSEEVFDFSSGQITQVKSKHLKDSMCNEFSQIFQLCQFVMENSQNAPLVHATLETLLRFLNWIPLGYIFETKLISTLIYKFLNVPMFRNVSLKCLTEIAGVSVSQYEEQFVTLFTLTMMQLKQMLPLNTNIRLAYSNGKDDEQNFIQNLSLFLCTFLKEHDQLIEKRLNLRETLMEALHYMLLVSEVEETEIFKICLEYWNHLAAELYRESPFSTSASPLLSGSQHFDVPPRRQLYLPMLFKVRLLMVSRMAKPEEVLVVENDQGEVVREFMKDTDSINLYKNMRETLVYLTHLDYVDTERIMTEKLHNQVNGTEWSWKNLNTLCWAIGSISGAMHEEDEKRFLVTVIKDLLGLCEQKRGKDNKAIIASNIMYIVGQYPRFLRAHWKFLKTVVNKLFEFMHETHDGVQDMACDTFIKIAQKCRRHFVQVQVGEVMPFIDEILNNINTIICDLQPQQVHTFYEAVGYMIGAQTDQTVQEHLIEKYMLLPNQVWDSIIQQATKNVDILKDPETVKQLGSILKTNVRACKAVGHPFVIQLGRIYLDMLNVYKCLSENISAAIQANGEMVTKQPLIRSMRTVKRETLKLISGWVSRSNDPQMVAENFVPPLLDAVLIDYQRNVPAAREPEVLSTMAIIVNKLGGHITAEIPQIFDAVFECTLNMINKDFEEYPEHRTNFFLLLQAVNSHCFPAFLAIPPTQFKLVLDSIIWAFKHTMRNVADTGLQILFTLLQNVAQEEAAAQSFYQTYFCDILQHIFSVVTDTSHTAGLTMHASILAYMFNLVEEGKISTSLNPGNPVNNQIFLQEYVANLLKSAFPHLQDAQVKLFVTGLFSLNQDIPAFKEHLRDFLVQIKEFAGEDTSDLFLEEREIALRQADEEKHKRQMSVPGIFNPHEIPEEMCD

With `O=C(/C=C\n1cnc(-c2cc(C(F)(F)F)cc(C(F)(F)F)c2)n1)N1CCCN1C(=O)C1CC1` [Compound 98, (Z)-3-(3-(3,5-bis(trifluoromethyl)phenyl)-1H-1,2,4-triazol-1-yl)-1-(2-(cyclopropanecarbonyl)pyrazolidin-1-yl)prop-2-en-1-one], the IC50 was less than 1000 nM on CRM1, 0.302 µM in data set [1] and 0.487 µM in data set [2].
Taken in the same sequence, the figures for `O=C(/C=C\n1cnc(-c2cc(C(F)(F)F)cc(C(F)(F)F)c2)n1)Nn1ccccc1=O` [Compound 56, (Z)-3-(3-(3,5-bis(trifluoromethyl)phenyl)-1H-1,2,4-triazol-1-yl)-N-(2-oxopyridin-1(2H)-yl)acrylamide] were less than 1000 nM, 0.449 µM and 0.382 µM.
Taken in the same sequence, the figures for `CC(C)N1C(=O)CCN1C(=O)/C=C\n1cnc(-c2cc(C(F)(F)F)cc(C(F)(F)F)c2)n1` [Compound 65, (Z)-1-(3-(3-(3,5-bis(trifluoromethyl)phenyl)-1H-1,2,4-triazol-1-yl)acryloyl)-2-isopropylpyrazolidin-3-one] were less than 1000 nM, 0.168 µM and 0.055 µM.
On the same counts, the results for `CC1CCN(NC(=O)/C=C\n2cnc(-c3cc(C(F)(F)F)cc(C(F)(F)F)c3)n2)C1=O` (stereo not drawn) [Compound 9, (Z)-3-(3-(3,5-bis(trifluoromethyl)phenyl)-1H-1,2,4-triazol-1-yl)-N-(3-methyl-2-oxopyrrolidin-1-yl)acrylamide] are less than 1000 nM, 0.334 µM and 0.504 µM.
Turning to `O=C(/C=C\n1cnc(-c2cc(C(F)(F)F)cc(C(F)(F)F)c2)n1)NN1C(=O)[C@H]2CC[C@@H]1C2` [Compound 32, (Z)-3-(3-(3,5-bis(trifluoromethyl)phenyl)-1H-1,2,4-triazol-1-yl)-N-((1R,4S)-3-oxo-2-azabicyclo[2.2.1]heptan-2-yl)acrylamide], the half-maximal inhibitory concentration (IC50) was less than 1000 nM against CRM1, 0.134 µM in data set [1] and 0.277 µM in data set [2].
Consider `O=C(/C=C\n1cnc(-c2cc(C(F)(F)F)cc(C(F)(F)F)c2)n1)NN1CCC2(CC2)C1=O` [Compound 18, (Z)-3-(3-(3,5-bis(trifluoromethyl)phenyl)-1H-1,2,4-triazol-1-yl)-N-(4-oxo-5-azaspiro[2.4]heptan-5-yl)acrylamide], for which, in data set [3], the AUC(0-t) was determined as 3100 ng·h/mL, the Cmax turned out to be 320 ng/mL, the MRT was 6.17 h and the Tmax came to 0.5 h. In data set [3], the half-life is 3.12 h.
On the same counts, the results for `O=C(/C=C\n1cnc(-c2cc(C(F)(F)F)cc(C(F)(F)F)c2)n1)NN1CCCCC1=O` [Compound 3, (Z)-3-(3-(3,5-bis(trifluoromethyl)phenyl)-1H-1,2,4-triazol-1-yl)-N-(2-oxopiperidin-1-yl)acrylamide] are 5810 ng·h/mL, 499 ng/mL, 7.86 h, 1 h and 3.31 h.
For `O=C(/C=C\n1cnc(-c2cc(C(F)(F)F)cc(C(F)(F)F)c2)n1)NN1CC2CCCCC2C1=O` (stereo not drawn) [Compound 28, (Z)-3-(3-(3,5-bis(trifluoromethyl)phenyl)-1H-1,2,4-triazol-1-yl)-N-(1-oxooctahydro-2H-isoindol-2-yl)acrylamide], the figures for the IC50 (against CRM1; in data set [1]; in data set [2]) were 1000 to 10000 nM, 0.769 µM and 0.24 µM, respectively.
As for `O=C(/C=C\n1cnc(-c2cc(C(F)(F)F)cc(C(F)(F)F)c2)n1)NN1CC(O)CC1=O` (stereo not drawn) [Compound 15, (Z)-3-(3-(3,5-bis(trifluoromethyl)phenyl)-1H-1,2,4-triazol-1-yl)-N-(4-hydroxy-2-oxopyrrolidin-1-yl)acrylamide], the IC50 in data set [1] stood at 0.352 µM; in data set [2] it was 1.23 µM.
With `CC1=CC(=O)N(NC(=O)/C=C\n2cnc(-c3cc(C(F)(F)F)cc(C(F)(F)F)c3)n2)CC1` [Compound 89, (Z)-3-(3-(3,5-bis(trifluoromethyl)phenyl)-1H-1,2,4-triazol-1-yl)-N-(4-methyl-6-oxo-3,6-dihydropyridin-1(2H)-yl)acrylamide], the IC50 at CRM1 is less than 1000 nM; in data set [1], 0.184 µM; in data set [2], 0.277 µM.
Taken in the same sequence, the figures for `O=C(/C=C\n1cnc(-c2cc(C(F)(F)F)cc(C(F)(F)F)c2)n1)NN1CC[C@H](O)C1=O` [Compound 10, (S,Z)-3-(3-(3,5-bis(trifluoromethyl)phenyl)-1H-1,2,4-triazol-1-yl)-N-(3-hydroxy-2-oxopyrrolidin-1-yl)acrylamide] were 1000 to 10000 nM, 0.527 µM and 0.519 µM.
Regarding `CCOC1=CC(=O)N(NC(=O)/C=C\n2cnc(-c3cc(C(F)(F)F)cc(C(F)(F)F)c3)n2)C1` [Compound 80, (Z)-3-(3-(3,5-bis(trifluoromethyl)phenyl)-1H-1,2,4-triazol-1-yl)-N-(4-ethoxy-2-oxo-2,5-dihydro-1H-pyrrol-1-yl)acrylamide], the results for the IC50 (on CRM1; in data set [1]; in data set [2]) were less than 1000 nM, 0.145 µM and 0.266 µM, respectively.
Turning to `O=C(/C=C\n1cnc(-c2cc(C(F)(F)F)cc(C(F)(F)F)c2)n1)NN1CCCCCC1=O` [Compound 4, (Z)-3-(3-(3,5-bis(trifluoromethyl)phenyl)-1H-1,2,4-triazol-1-yl)-N-(2-oxoazepan-1-yl)acrylamide], the IC50 is less than 1000 nM against CRM1, 0.238 µM in data set [1] and 0.034 µM in data set [2].
On the same counts, the results for `O=C(/C=C\n1cnc(-c2cc(C(F)(F)F)cc(C(F)(F)F)c2)n1)N1CCCN1c1cnccn1` [Compound 96, (Z)-3-(3-(3,5-bis(trifluoromethyl)phenyl)-1H-1,2,4-triazol-1-yl)-1-(2-(pyrazin-2-yl)pyrazolidin-1-yl)prop-2-en-1-one] are less than 1000 nM, 0.334 µM and 0.675 µM.
Taken in the same sequence, the figures for `O=C(/C=C\n1cnc(-c2cc(C(F)(F)F)cc(C(F)(F)F)c2)n1)NN1CCC=CC1=O` [Compound 88, (Z)-3-(3-(3,5-bis(trifluoromethyl)phenyl)-1H-1,2,4-triazol-1-yl)-N-(6-oxo-3,6-dihydropyridin-1(2H)-yl)acrylamide] were less than 1000 nM, 0.259 µM and 0.41 µM.
On the same counts, the results for `CCC1=C(C)CN(NC(=O)/C=C\n2cnc(-c3cc(C(F)(F)F)cc(C(F)(F)F)c3)n2)C1=O` [Compound 6, (Z)-3-(3-(3,5-bis(trifluoromethyl)phenyl)-1H-1,2,4-triazol-1-yl)-N-(3-ethyl-4-methyl-2-oxo-2,5-dihydro-1H-pyrrol-1-yl)acrylamide] are less than 1000 nM, 0.471 µM and 0.487 µM.
In the case of `O=C(/C=C\n1cnc(-c2cc(C(F)(F)F)cc(C(F)(F)F)c2)n1)N1CCC(=O)N1Cc1ccccc1` [Compound 67, (Z)-2-benzyl-1-(3-(3-(3,5-bis(trifluoromethyl)phenyl)-1H-1,2,4-triazol-1-yl)acryloyl)pyrazolidin-3-one], the IC50 at CRM1 was less than 1000 nM; in data set [1], 0.483 µM; in data set [2], 0.965 µM.
Taken in the same sequence, the figures for `O=C(/C=C\n1cnc(-c2cc(C(F)(F)F)cc(C(F)(F)F)c2)n1)NN1C(=O)[C@H]2C=C[C@@H]1C2` [Compound 30, (Z)-3-(3-(3,5-bis(trifluoromethyl)phenyl)-1H-1,2,4-triazol-1-yl)-N-((1S,4R)-3-oxo-2-azabicyclo[2.2.1]hept-5-en-2-yl)acrylamide] were less than 1000 nM, 0.392 µM and 0.515 µM.

The term IC50 denotes the concentration at which inhibition is half-maximal. Broadly, the AUC(0-t) is the area under the concentration-time curve up to a stated or last time point. The low end stands for less exposure, the high end for more exposure. A word on the Cmax: it is the maximum level reached in the sampled fluid or tissue. Usually MRT stands for a mean duration of stay, worked out from the concentration-time curve. In general, Tmax refers to the time at which the peak concentration occurs. For orientation: half-life means how long it takes for the measured level to halve. A lower half-life goes with fast loss.
